Calls of active or inactive are those of the source.
Columns and labels:
Format in all cases: functional, cell-based
Details in all cases: Homo sapiens
CCRF-CEM [1] = assay: Compound was tested for toxicity to the CEM cell monolayers; No toxicity
CCRF-CEM [2] = assay: Compound was tested for the inhibition of HIV-1 replication in CEM cell culture up to 100 ug/mL concentration; Not active
CCRF-CEM [3] = assay: Compound was tested for the inhibition of HIV-2 replication in CEM cell culture up to 100 ug/mL concentration; Not active

Cc1cn(C2C=CC(OCP(=O)(O)O)CO2)c(=O)[nH]c1=O (stereo not drawn)
inactive: Toxicity (CCRF-CEM [1]) Not toxic | inhibition (CCRF-CEM [2]) | inhibition (CCRF-CEM [3])

From ChEMBL document CHEMBL1127776, “Stereospecific synthesis of a pentopyranosyl analogue of d4T monophosphate” (Bioorg Med Chem Lett, 1994)
